pEC50: −log10 of the molar value. Where two headings read alike, the source gives them in different places.
Legend:
Type in all cases: cell-based
[1] = tested on: human lymphoma cell line Raji; experiment: Inhibition of cell proliferation (GI50), Raji; details: Homo sapiens; Raji cells, 48 h, CellTiter-Glo
Experimental: (§1) Human breast cancer cell lines T-47D, human hepatocellular carcinoma cell line SNU398, human colon carcinoma cell line HCT116, human lung cancer cell line H1299, human leukemia cell line K562, human lymphoma cell line Raji, human B cell lymphoblastoid cell line Ramos, and human Burkitt's lymphoma cell line Namalwa were grown and harvested as in Example 100. An aliquot of […] of cells (4.4×10^4 cells/mL) was added to a well of a 96-well microtiter plate containing 5 μL of a 10% DMSO in RPMI-1640 media solution containing 10 nM to 100 μM of 3-(2-chlorophenyl)-6-(3,4-methylenedioxyphenyl)-7H-[1,2,4]triazolo[3,4-b][1,3,4]thiadiazine (1 nM to 10 μM final). An aliquot of 45 μL of cells was added to a well of a 96-well microtiter plate containing 5 μL of a 10% DMSO in RPMI-1640 media solution without compound as the control sample for maximal cell proliferation (LMax). The samples were mixed by agitation and then incubated at 37° C. for 48 h in a 5% CO2-95% humidity incubator. After incubation, the samples were removed from the incubator and 25 μL of CellTiter-Glo™ reagent (Promega) was added. The samples were mixed by agitation and incubated at room temperature for 10-15 min. Plates were then read using a luminescent plate reader (Model SPECTRAfluor Plus, Tecan) to give Ltest values.
(§2) The samples were mixed by agitation and then incubated at 37° C. for 0.5 h in a 5% CO2-95% humidity incubator. After incubation, the samples were removed from the incubator and 25 μL of CellTiter-Glo™ reagent (Promega) was added. The samples were mixed by agitation and incubated at […] 10-15 min at room temperature in a 5% CO2-95% humidity incubator. Fluorescence was read as above, (LStart) defining luminescence for initial cell number used as baseline in GI50 determinations.
(§3) Calculation: GI50 (dose for 50% inhibition of cell proliferation) is the concentration where [(Ltest−LStart)/(LMax−LStart)]=0.5.

[2] = tested on: human cancer cell line H1299; experiment: Caspase cascade activation (EC50), H1299; details: NCI-H1299, H1299 cells, read-out: caspase potency (EC50) H1299
Experimental: Human breast cancer cell lines T-47D, human hepatocellular carcinoma cell line SNU398, human colon carcinoma cell line HCT116, human cancer cell line H1299, human Burkitt's lymphoma cell line Namalwa, human lymphoma cell line Raji, and human B cell lymphoblastoid cell line Ramos were grown according to media component mixtures designated by American Type Culture Collection+10% FCS (Invitrogen Corporation), in a 5% CO2-95% humidity incubator at 37° C. T-47D and H1299 cells were maintained at a cell density between 50 and 80% confluency at a cell density of 0.1 to 0.6×10^6 cells/mL. Cells were harvested at 600×g and resuspended at 0.65×10^6 cells/mL into appropriate media+10% FCS. An aliquot of 22.5 μL of cells was added to a well of a 384-well microtiter plate containing 2.5 μL of a 10% DMSO in RPMI-1640 media solution containing 0.16 to 100 μM of 3-(2-chlorophenyl)-6-(3,4-methylenedioxyphenyl)-7H-[1,2,4]triazolo[3,4-b][1,3,4]thiadiazine or other test compound (0.016 to 10 μM final). An aliquot of 22.5 μL of cells was added to a well of a 384-well microtiter plate containing 2.5 μL of a 10% DMSO in RPMI-1640 media solution without test compound as the control sample. The samples were mixed by agitation and then incubated at 37° C. for 48 h in a 5% CO2-95% humidity incubator. After incubation, the samples were removed from the incubator and 25 μL of a solution containing 14 μM of N—(Ac-DEVD)-N′-ethoxycarbonyl-R110 (SEQ ID No.:1) fluorogenic substrate (Cytovia, Inc.; WO99/18856), 20% sucrose (Sigma), 20 mM DTT (Sigma), 200 mM NaCl (Sigma), 40 mM Na PIPES buffer pH 7.2 (Sigma), and 500 μg/mL lysolecithin (Calbiochem) was added. The samples were mixed by agitation and incubated at room temperature. Using a fluorescent plate reader (Model SPECTRAfluor Plus, Tecan), an initial reading (T=0) was made approximately 1-2 min after addition of the substrate solution, employing excitation at 485 nm and emission at 530 nm, to determine the background fluorescence of the control sample. After the 3 h incubation, the samples were read for fluorescence as above (T=3 h). Calculation: The Relative Fluorescence Unit values (RFU) were used to calculate the sample readings as follows: RFU(T=3H)−Control RFU(T=0)=Net RFU(T=3h) The activity of caspase cascade activation was determined by the ratio of the net RFU value for 3-(2-chlorophenyl)-6-(3,4-methylenedioxyphenyl)-7H-[1,2,4]triazolo[3,4-b][1,3,4]thiadiazine (Example P) or other test compound to that of control samples. The EC50 (nM) was determined by a sigmoidal dose-response calculation (Prism 3.0, GraphPad Software Inc.).

[3] = tested on: human colon carcinoma cell line HCT116; experiment: Inhibition of cell proliferation (GI50), HCT116; details: HCT 116 cells, 48 h, CellTiter-Glo
Experimental: as §1, §2, §3

[4] = tested on: human hepatocellular carcinoma cell line SNU398; experiment: Caspase cascade activation (EC50), SNU398; details: Homo sapiens, SNU-398; SNU398 cells; caspase cascade activation; read-out: caspase potency (EC50) SNU398
Summary of the method: (§4)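 Cells in ATCC medium plus 10% FCS, seeded at 0.65×10^6 cells/mL, incubated with compound at 0.016 to 10 μM final, 48 h, 37 °C. Lysis-substrate buffer (14 μM DEVD-R110, 20 mM DTT, pH 7.2, lysolecithin) added; fluorescence read after 3 h at room temperature.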

[5] = tested on: human breast cancer cell line T-47D; experiment: Caspase cascade activation (EC50), T-47D; details: T47D cells, caspase cascade activation, read-out: caspase potency (EC50) T47D
Summary of the method: as §4

[6] = tested on: human B cell lymphoblastoid cell line Ramos; experiment: Caspase cascade activation (EC50), Ramos; details: Homo sapiens, RAMOS cells, read-out: caspase potency (EC50) RAMOS
Summary of the method: as §4

[7] = tested on: human colon carcinoma cell line HCT116; experiment: Caspase cascade activation (EC50), HCT116; details: Homo sapiens, HCT-116; HCT116 cells; caspase cascade activation; read-out: caspase potency (EC50) HCT116
Summary of the method: as §4

[8] = tested on: human leukemia cell line K562; experiment: Inhibition of cell proliferation (GI50), K562; details: Homo sapiens; K562 cells, 48 h, CellTiter-Glo
Experimental: as §1, §2, §3

[9] = tested on: human B cell lymphoblastoid cell line Ramos; experiment: Inhibition of cell proliferation (GI50), Ramos; details: Homo sapiens; Ramos cells, 48 h, CellTiter-Glo
Experimental: as §1, §2, §3

[10] = tested on: human lymphoma cell line Raji; experiment: Caspase cascade activation (EC50), Raji; details: Homo sapiens, RAJI cells, read-out: caspase potency (EC50) RAJI
Summary of the method: as §4

[11] = tested on: human Burkitt's lymphoma cell line Namalwa; experiment: Inhibition of cell proliferation (GI50), Namalwa; details: Homo sapiens, Burkitts lymphoma cell; Namalwa cells, 48 h, CellTiter-Glo
Experimental: as §1, §2, §3

[12] = tested on: human Burkitt's lymphoma cell line Namalwa; experiment: Caspase cascade activation (EC50), Namalwa; details: Homo sapiens, Burkitts lymphoma cell; Namalwa cells; caspase cascade activation; read-out: caspase potency (EC50) Namalwa
Summary of the method: as §4

[13] = tested on: human hepatocellular carcinoma cell line SNU398; experiment: Inhibition of cell proliferation (GI50), SNU398; details: SNU 398 cells, 48 h, CellTiter-Glo
Experimental: as §1, §2, §3

[14] = tested on: human breast cancer cell line T-47D; experiment: Inhibition of cell proliferation (GI50), T47D; details: T47D cells, 48 h, CellTiter-Glo
Experimental: as §1, §2, §3

With `CCOc1ccc(C2=Nn3c(nnc3-c3ccccc3C)SC2)cc1` [L, 3-(2-Methylphenyl)-6-(4-ethoxyphenyl)-7H-[1,2,4]triazolo[3,4-b][1,3,4]thiadiazine] the GI50 [1] was 62 nM, the pEC50 [2] was 6.47 and the GI50 ([3]; Homo sapiens) was 141 nM. For the same compound, the pEC50 [4] was 7.04, the pEC50 ([5]; Homo sapiens) was 5.87 and the pEC50 [6] was 7.03. It also gave a pEC50 [7] of 6.90, a GI50 [8] of 27 nM and a GI50 [9] of 17 nM. For the same compound, the pEC50 [10] was 6.85, the GI50 [11] was 24 nM and the pEC50 [12] was 7.21.

Compound `CCOc1cccc(-c2nnc3n2N=C(c2ccc4c(c2)OCO4)CS3)c1` [Example E1, 3-(3-Ethoxyphenyl)-6-(3,4-methylenedioxyphenyl)-7H-[1,2,4]triazolo[3,4-b][1,3,4]thiadiazine] has a GI50 ([13]; Homo sapiens) of 4600 nM, a GI50 ([14]; Homo sapiens) of 5000 nM and a GI50 ([3]; Homo sapiens) of 5000 nM. For the same compound, the pEC50 [4] was less than 5.00, the pEC50 ([5]; Homo sapiens) was 5.67 and the pEC50 [6] was 5.59. For the same compound, the pEC50 [7] was less than 5.00, the pEC50 [10] was 5.27 and the pEC50 [12] was less than 5.00.

“3-(3,5-Dimethoxyphenyl-4-(2-dimethylaminoethoxy)phenyl)-6-(4-methylphenyl)-7H-[1,2,4]triazolo[3,4-b][1,3,4]thiadiazine [Example 16]” showed a GI50 [13] of 2000 nM, a GI50 [14] of 936 nM and a GI50 [3] of 1150 nM. The pEC50 [5] was 6.22.

`COc1cc(-c2nnc3n2N=C(c2ccc(C)cc2)CS3)cc(OC)c1OC` [Example 17, 3-(3,4,5-Trimethoxyphenyl)-6-(4-methylphenyl)-7H-[1,2,4]triazolo[3,4-b][1,3,4]thiadiazine] showed a GI50 ([13]; Homo sapiens) of 25 nM, a GI50 ([14]; Homo sapiens) of 15 nM and a GI50 ([3]; Homo sapiens) of 21 nM. For the same compound, the pEC50 [4] was 7.62, the pEC50 ([5]; Homo sapiens) was 6.93 and the pEC50 [6] was 7.51. It also gave a pEC50 [7] of 7.34, a pEC50 [10] of 7.30 and a pEC50 [12] of 7.54.

With `COc1ccc(C2=Nn3c(nnc3-c3ccccc3C)SC2)cc1` [Example N2, 3-(2-Methylphenyl)-6-(4-methoxyphenyl)-7H-[1,2,4]triazolo[3,4-b][1,3,4]thiadiazine] the GI50 [1] was 164 nM, the GI50 ([3]; Homo sapiens) was 171 nM and the pEC50 [4] was 7.51. For the same compound, the pEC50 ([5]; Homo sapiens) was 6.72, the pEC50 [6] was 7.54 and the pEC50 [7] was 7.47. For the same compound, the GI50 [8] was 38 nM, the GI50 [9] was 13 nM and the pEC50 [10] was 7.28. It also gave a GI50 [11] of 34 nM and a pEC50 [12] of 7.39.

From patent US20080045514A1 (Cytovia, Inc., priority 2006, published 2008)
